Here are results for 16 compounds from patent US7855212B2, “Pyridinyl acetonitriles” (Merck Serono SA, priority 2003, dated 2010).

In general, IC50 refers to the concentration that inhibits the measured activity by half.

Sequence of rat JNK3 (P49187 whole entry): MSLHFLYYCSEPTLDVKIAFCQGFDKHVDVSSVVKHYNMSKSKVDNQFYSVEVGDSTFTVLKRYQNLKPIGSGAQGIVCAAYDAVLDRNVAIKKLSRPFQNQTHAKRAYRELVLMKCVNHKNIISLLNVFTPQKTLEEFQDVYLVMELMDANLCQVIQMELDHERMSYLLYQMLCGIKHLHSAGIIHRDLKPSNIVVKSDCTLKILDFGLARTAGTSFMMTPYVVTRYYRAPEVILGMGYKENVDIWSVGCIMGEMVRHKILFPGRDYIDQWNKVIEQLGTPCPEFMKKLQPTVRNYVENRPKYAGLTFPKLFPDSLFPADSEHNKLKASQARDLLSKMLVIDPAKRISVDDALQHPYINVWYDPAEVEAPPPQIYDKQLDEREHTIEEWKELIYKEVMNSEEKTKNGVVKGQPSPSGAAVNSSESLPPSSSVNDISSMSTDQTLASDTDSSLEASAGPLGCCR

One assay deals with human GSK3 beta (Homo sapiens, UniProt P49841). The assay can be described thus: GSK3β in vitro assay (33P phosphorylation of phospho GS2 peptide). Format: biochemical. The settings on record: in vitro potency on human GSK3 beta; read-out: IC50 (μM) GSK3beta. As to the method: GSK3β Assay (see Bioorg. Med. Chem. Lett by Naerum et al. 12 p. 1525-1528 (2002))
Sequence of human GSK3 beta (P49841 whole entry): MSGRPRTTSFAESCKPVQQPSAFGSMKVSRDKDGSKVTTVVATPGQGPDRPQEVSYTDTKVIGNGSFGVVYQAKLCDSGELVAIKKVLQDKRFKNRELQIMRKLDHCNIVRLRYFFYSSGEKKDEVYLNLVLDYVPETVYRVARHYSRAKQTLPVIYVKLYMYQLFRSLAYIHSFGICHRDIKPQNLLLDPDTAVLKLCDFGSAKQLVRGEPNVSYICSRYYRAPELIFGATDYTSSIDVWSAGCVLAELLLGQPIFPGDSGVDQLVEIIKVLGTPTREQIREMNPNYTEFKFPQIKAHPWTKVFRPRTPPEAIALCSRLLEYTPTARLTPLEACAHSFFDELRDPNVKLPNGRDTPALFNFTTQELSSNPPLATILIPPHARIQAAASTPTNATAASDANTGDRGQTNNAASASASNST
In a final reaction volume of 25 μl, GSK3β (h) (5-10 mU) is incubated with 8 mM MOPS pH 7.0, 0.2 mM EDTA, 20 μM […](p)EDEEE (being the GSK3 substrate; a phospho GS2 peptide), 10 mM Mg Acetate and [γ-^33P-ATP] (Specific activity approx. 500 cpm/pmol, concentration as required). The reaction is initiated by the addition of Mg^2+ [γ-^33P-ATP]. After incubation for 40 minutes at room temperature, the reaction is stopped by the addition of 5 μl of a 3% phosphoric acid solution. 10 μl of the reaction is then spotted onto a P30 filtermat and washed three times for 5 minutes in 50 mM phosphoric acid and once in methanol prior to drying and the degree of phosphorylation of the substrate is determined by scintillation counting.
Consider `Cc1cnc(NCCc2cccnc2)nc1/C(C#N)=C1/C=CC=CN1` [Example 3, 4-pyrimidineacetonitrile, 5-methyl-2-[[2-(3-pyridinyl)ethyl]amino]-alpha-2(1H)-pyridinylidene-], for which the IC50 turned out to be 0.5 µM.

For the compound `Cc1cnc(NC2CC2)nc1/C(C#N)=C1/C=CC=CN1` [Example 15, 4-pyrimidineacetonitrile, 2-(cyclopropylamino)-5-methyl-alpha-2-pyridinyl-], the IC50 is 0.2 µM.

On to `CCCC(C)Nc1ncc(C)c(/C(C#N)=C2/C=CC=CN2)n1` (stereo not drawn) [Example 25, 4-pyrimidineacetonitrile, 5-methyl-2-[(1-methylbutyl)amino]-alpha-2-pyridinyl-], for which the IC50 was 0.17 µM.

As to `N#CC(=C1C=CNC=C1)c1ccnc(NCCc2cccnc2)n1` [Example 34, 4-pyrimidineacetonitrile, alpha-4-pyridinyl-2-[[2-(3-pyridinyl)ethyl]amino]-], the IC50 was 1.5 µM.

Regarding `CNc1nc(NCCc2cccnc2)nc(/C(C#N)=C2/C=CC=CN2)n1` [Example 49, 1,3,5-triazine-2-acetonitrile, 4-(methylamino)-alpha-2-pyridinyl-6-[[2-(3-pyridinyl)ethyl]amino]-], the IC50 was determined as 7.7 µM.

A further assay addresses rat JNK3 (Rattus norvegicus, UniProt P49187). The assay can be described thus: JNK3 in vitro assay (33P incorporation into c-Jun, SPA). The assay is classed as biochemical. The following applies: in vitro potency on rat JNK3; read-out: JUNK3 IC50. On the procedure:
The compounds of the present invention are inhibitors of JNKs. The phosphorylation of c-jun by JNK2 or JNK3 may be determined by monitoring the incorporation of ^33P into c-jun following the protocol below. The inhibitory activity of the compounds according to formula I, towards c-jun phosphorylation through JNK, is determined by calculating phosphorylation activity in the presence or absence of compounds according to formula I.
JNK3 and/or -2 assays are performed in 96 well MIT plates: incubation of 0.5 μg of recombinant, pre-activated GST-JNK3 or GST-JNK2 with 1 μg of recombinant, biotinylated GST-c-Jun and 2 μM ^33γ-ATP (2 nCi/μl), in the presence or absence of compounds according to formula I and in a reaction volume of 50 μl containing 50 mM Tris-HCl, pH 8.0; 10 mM MgCl2; 1 mM Dithiothreitol, and 100 μM NaVO4. The incubation is performed for 120 min. at R.T and stopped upon addition of 200 μl of a solution containing 250 μg of Streptavidine-coated SPA beads (Amersham, Inc.)*, 5 mM EDTA, 0.1% Triton X-100 and 50 μM ATP, in phosphate saline buffer.
After incubation for 60 minutes at RT, beads are sedimented by centrifugation at 1500×g for 5 minutes, resuspended in 200 μl of PBS containing 5 mM EDTA, 0.1% Triton X-100 and 50 μM ATP and the radioactivity measured in a scintillation β counter, following sedimentation of the beads as described above.
With `Cc1cnc(NCCc2ccc(N(C)C)nc2)nc1/C(C#N)=C1/C=CC=CN1` [Example 4, 4-pyrimidineacetonitrile, 2-[[2-[6-(dimethylamino)-3-pyridinyl]ethyl]amino]-5-methyl-alpha-2(1H)-pyridinylidene-], the IC50 is 480 nM.

Take `Cc1cnc(NC2CCCCC2)nc1/C(C#N)=C1/C=CC=CN1` [Example 8, 4-pyrimidineacetonitrile, 2-(cyclohexylamino)-5-methyl-alpha-2-pyridinyl-]: the IC50 was 70 nM.

Turning to `Cc1cnc(NCC2CCCCC2)nc1/C(C#N)=C1/C=CC=CN1` [Example 9, 4-pyrimidineacetonitrile, 2-[(cyclohexylmethyl)amino]-5-methyl-alpha-2 pyridinyl-], the IC50 was found to be 486 nM.

As for `Cc1cnc(NC2CCC2)nc1/C(C#N)=C1/C=CC=CN1` [Example 11, 4-pyrimidineacetonitrile, 2-(cyclobutylamino)-5-methyl-alpha-2(1H)-pyridinylidene], the IC50 was 106 nM.

Turning to `Cc1cnc(NC2CCN(C(=O)OC(C)(C)C)CC2)nc1/C(C#N)=C1/C=CC=CN1` [Example 12, 1-piperidinecarboxylic acid, 4-[[4-[(E)-cyano-2(1H)-pyridinylidenemethyl]-5-methyl-2-pyrimidinyl]amino]-, 1,1-dimethylethyl ester], the IC50 is 1140 nM.

As to `CCN1C=CC=C/C1=C(\C#N)c1nc(NC2CCCC2)ncc1C` [Example 14, 4-pyrimidineacetonitrile, 2-(cyclopentylamino)-alpha-(1-ethyl-2(1H)-pyridinylidene)-5-methyl], the IC50 was 6200 nM.

With `Cc1cnc(NC2CC2)nc1/C(C#N)=C1/C=CC=CN1` [Example 15, 4-pyrimidineacetonitrile, 2-(cyclopropylamino)-5-methyl-alpha-2-pyridinyl-], the IC50 was 299 nM.

Turning to `Cc1cnc(NC2CCN(Cc3ccccc3)CC2)nc1/C(C#N)=C1/C=CC=CN1` [Example 16, 4-pyrimidineacetonitrile, 5-methyl-2-[[1-(phenylmethyl)-4-piperidinyl]amino]-alpha-2(1H)-pyridinylidene-], the IC50 is 665 nM.

For the compound `Cc1cnc(NCC(C)C)nc1/C(C#N)=C1/C=CC=CN1` [Example 20, 4-pyrimidineacetonitrile, 5-methyl-2-[(2-methylpropyl)amino]-alpha-2(1H)-pyridinylidene-], the IC50 was 210 nM.

With `Cc1cnc(NC(C)C)nc1/C(C#N)=C1/C=CC=CN1` [Example 21, 4-pyrimidineacetonitrile, 5-methyl-2-[(1-methylethyl)amino]-alpha-2(1H)-pyridinylidene-], the IC50 is 310 nM.

In the case of `Cc1cnc(N[C@H]2CCCC[C@@H]2O)nc1/C(C#N)=C1/C=CC=CN1` [Example 22, 4-pyrimidineacetonitrile, 2-[[(1S,2S)-2-hydroxycyclohexyl]amino]-5-methyl-alpha-2(1H)-pyridinylidene-], the IC50 came to 740 nM.

Turning to `Cc1cnc(Cl)nc1/C(C#N)=C1/C=CC=CN1` [Intermediate 5, 4-pyrimidineacetonitrile, 2-chloro-5-methyl-alpha-2(1H)-pyridinylidene-], the IC50 worked out at 2350 nM.
